Experimental data: PMC13422867, “An orally available PfPKG inhibitor blocks Plasmodium’s infection of the liver” (PLOS Pathogens, 2026)
pIC50, pKd: −log10 of the molar value. Where two headings read alike, the source gives them in different places.

How the values were obtained:
[1] = system: P. berghei sporozoites (PbLuc-GFP); experiment: In vivo chemoprotective efficacy against sporozoite liver infection; design: species or system Plasmodium berghei in mice
[2] = system: P. berghei sporozoites infecting HepG2 cells; conditions: cited from earlier work
[3] = system: P. cynomolgi hypnozoite; experiment: Hypnozoite formation in primary simian hepatocytes, high-content imaging; type: cell-based, Plasmodium cynomolgi; conditions: Plasmodium cynomolgi, Hepatocyte
Method: Liver stage antimalarial activity was evaluated using sporozoites from P. falciparum (NF54 strain) and P. cynomolgi bastianellii (B strain). P. falciparum-infected Anopheles stephensi mosquitoes were reared at WRAIR, while P. cynomolgi-infected Anopheles dirus mosquitoes were obtained from the Armed Forces Research Institute of Medical Sciences (AFRIMS), Thailand. Sporozoites were isolated by dissecting salivary glands under sterile conditions, followed by gentle mechanical disruption. Freshly isolated sporozoites were immediately used for hepatocyte infection.
Primary cryopreserved hepatocytes were selected based on host-parasite compatibility: primary simian hepatocytes (lot OQB) for P. cynomolgi and human hepatocytes (lot BGW) for P. falciparum (BioIVT Inc., Baltimore, MD, USA). Cells were thawed according to the manufacturer’s protocol and seeded into 384-well collagen-coated assay plates (Greiner Bio-One, Monroe, NC, USA) using InVitroGro CP plating medium (BioIVT). Seeding densities were optimized for uniform monolayer formation, and hepatocytes were allowed to adhere for 24–48 hours before infection. Sporozoites were added at a 1:1.1 hepatocyte-to-sporozoite ratio within 48 hours post-seeding. Automated robotic systems were used for media changes and compound additions to ensure assay consistency and minimize variability associated with manual pipetting.
Test compounds (PfPKG inhibitors) and assay drug controls (KDU-691 and tafenoquine) were solubilized in DMSO or PBS and serially diluted into 8- or 12-point, 2- or 3-fold series, achieving final assay concentrations ranging from 20 µM to 0.019 µM. Compounds were introduced using a calibrated pin tool controlled by robotic arms (V&P Scientific), ensuring a 1:1000 dilution into assay wells. Media were replenished daily with fresh drug-containing HCM. […]
Cells were fixed using 4% paraformaldehyde for 20 minutes at room temperature, followed by three PBS washes, and stored at 4°C until further processing. Parasite detection was performed using species-specific primary antibodies, with P. cynomolgi parasites labeled using a mouse monoclonal anti-Plasmodium GAPDH antibody (1.6 μg/mL, European Malaria Reagent Repository) and P. falciparum parasites detected using a rabbit polyclonal anti-PfHSP70 antibody (1:70 dilution, LS Bio, USA). […]
High-content imaging was performed using the Operetta CLS system (Revvity) and image analysis was performed with Harmony software version 4.9 (Revvity, Waltham, MA, USA). Images were acquired at 10x or 20x magnification using DAPI and TRITC fluorescence channels. Following the established protocol, parasites were classified as hypnozoites or schizonts based on fluorescence intensity (mean and maximum), morphological features (cell roundness and size), and segmentation criteria. […]

[4] = target: T1, ROCK2 (Homo sapiens, UniProt O75116); experiment: KdElect binding affinity assay; conditions: read-out: ROCK2 Experimental Kd
T1 construct: purchased Eurofins (DiscoverX)
T1 sequence (O75116 whole entry): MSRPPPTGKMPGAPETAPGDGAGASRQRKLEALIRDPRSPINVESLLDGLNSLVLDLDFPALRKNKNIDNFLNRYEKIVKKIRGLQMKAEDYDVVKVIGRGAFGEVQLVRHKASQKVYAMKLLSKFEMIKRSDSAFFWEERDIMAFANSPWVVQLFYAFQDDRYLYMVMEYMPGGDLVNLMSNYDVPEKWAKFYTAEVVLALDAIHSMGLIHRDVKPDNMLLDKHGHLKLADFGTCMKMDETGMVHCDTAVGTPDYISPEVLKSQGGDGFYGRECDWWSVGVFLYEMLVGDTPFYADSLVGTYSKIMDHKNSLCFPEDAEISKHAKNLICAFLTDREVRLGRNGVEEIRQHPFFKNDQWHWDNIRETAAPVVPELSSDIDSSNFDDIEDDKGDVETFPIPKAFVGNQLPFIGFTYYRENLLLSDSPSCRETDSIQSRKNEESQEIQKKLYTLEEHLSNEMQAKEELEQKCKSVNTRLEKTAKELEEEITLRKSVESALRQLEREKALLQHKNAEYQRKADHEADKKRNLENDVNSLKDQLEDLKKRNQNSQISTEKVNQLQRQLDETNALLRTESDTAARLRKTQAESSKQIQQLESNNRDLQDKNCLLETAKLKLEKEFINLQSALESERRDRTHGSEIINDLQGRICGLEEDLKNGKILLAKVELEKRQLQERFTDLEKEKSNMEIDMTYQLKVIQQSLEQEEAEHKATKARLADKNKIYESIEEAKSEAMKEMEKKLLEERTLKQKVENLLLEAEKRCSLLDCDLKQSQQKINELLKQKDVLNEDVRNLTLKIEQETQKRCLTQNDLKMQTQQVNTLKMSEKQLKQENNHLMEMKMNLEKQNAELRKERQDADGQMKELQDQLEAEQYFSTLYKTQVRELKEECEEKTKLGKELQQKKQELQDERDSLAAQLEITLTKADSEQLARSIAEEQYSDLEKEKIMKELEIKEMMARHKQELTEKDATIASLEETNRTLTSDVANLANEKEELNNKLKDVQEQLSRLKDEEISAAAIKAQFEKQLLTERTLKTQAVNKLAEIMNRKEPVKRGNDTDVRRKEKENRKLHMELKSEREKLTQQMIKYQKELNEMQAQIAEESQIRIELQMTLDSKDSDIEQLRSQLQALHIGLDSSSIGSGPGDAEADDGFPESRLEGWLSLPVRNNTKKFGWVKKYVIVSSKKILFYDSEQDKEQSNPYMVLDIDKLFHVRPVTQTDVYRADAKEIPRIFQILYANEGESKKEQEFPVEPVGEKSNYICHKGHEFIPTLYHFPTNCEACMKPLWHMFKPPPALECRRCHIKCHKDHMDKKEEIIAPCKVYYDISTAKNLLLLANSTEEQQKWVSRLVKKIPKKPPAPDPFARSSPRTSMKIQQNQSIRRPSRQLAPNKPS
Method: (§1) Off-target kinase inhibition was assessed using the DiscoverX scanMAX (Eurofins) panel at 1 µM compound concentration. Binding affinities of CIT, ROCK1 and ROCK2 were evaluated using the KdElect assay (Eurofins).

[5] = target: T2, CIT (Homo sapiens, UniProt O14578); experiment: KdElect binding affinity assay; conditions: read-out: CIT Experimental Kd
T2 construct: purchased Eurofins (DiscoverX)
T2 sequence (O14578 whole entry): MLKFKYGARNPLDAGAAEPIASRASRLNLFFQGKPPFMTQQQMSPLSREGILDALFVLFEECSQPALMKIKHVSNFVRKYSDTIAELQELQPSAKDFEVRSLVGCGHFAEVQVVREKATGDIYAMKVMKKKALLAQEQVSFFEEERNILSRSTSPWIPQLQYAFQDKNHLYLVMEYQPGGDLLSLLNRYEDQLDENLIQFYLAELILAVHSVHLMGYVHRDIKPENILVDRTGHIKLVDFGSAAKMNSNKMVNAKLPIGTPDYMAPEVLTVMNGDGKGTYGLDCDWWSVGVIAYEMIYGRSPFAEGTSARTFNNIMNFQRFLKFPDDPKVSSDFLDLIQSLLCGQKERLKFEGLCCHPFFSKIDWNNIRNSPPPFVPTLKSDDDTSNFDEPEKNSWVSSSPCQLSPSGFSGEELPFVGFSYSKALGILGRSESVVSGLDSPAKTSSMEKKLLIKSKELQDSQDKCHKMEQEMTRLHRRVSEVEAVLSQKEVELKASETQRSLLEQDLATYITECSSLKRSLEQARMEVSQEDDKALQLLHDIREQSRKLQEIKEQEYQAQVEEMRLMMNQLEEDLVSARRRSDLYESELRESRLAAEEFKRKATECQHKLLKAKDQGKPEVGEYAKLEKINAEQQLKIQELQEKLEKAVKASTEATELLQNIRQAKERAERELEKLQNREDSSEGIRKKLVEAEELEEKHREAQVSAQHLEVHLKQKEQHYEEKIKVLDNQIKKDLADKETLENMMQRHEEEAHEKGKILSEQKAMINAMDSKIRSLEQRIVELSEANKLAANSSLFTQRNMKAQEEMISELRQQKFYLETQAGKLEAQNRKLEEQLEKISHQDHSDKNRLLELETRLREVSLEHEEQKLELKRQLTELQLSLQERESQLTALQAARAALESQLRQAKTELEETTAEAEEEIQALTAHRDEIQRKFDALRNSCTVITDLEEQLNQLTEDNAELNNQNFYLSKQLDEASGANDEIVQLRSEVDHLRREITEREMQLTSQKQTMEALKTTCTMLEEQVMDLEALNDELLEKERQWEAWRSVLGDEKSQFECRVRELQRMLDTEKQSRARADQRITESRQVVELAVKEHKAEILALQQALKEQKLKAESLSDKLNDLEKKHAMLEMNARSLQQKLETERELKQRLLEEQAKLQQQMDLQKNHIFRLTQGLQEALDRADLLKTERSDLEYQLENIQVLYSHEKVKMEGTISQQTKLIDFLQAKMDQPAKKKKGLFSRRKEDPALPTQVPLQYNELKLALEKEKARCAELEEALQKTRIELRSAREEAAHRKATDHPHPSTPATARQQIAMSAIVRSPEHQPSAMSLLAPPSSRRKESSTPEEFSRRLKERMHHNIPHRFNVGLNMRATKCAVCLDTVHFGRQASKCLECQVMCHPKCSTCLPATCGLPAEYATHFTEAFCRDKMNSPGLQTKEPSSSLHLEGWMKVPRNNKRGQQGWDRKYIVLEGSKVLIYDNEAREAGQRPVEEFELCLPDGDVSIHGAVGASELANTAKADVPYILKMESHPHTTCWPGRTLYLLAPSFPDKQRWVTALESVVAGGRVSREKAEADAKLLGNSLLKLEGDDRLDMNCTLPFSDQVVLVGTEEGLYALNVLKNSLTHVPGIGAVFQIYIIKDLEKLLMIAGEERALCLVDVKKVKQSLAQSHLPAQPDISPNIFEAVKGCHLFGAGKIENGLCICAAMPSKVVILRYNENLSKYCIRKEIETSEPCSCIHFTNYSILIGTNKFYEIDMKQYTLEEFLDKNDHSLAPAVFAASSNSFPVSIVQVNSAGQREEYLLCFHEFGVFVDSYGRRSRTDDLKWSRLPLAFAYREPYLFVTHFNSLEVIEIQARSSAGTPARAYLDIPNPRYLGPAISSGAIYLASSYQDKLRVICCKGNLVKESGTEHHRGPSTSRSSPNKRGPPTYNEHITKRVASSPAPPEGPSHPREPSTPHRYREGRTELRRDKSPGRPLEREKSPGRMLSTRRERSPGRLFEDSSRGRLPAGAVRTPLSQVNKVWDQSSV
Method: as §1

[6] = in vitro; cited from earlier work
[7] = system: mutant P. falciparum parasites carrying a Thr618Gln substitution; conditions: cited from earlier work
[8] = system: hERG; conditions: in vitro; cited from earlier work
[9] = target: T1, ROCK2; experiment: DiscoverX scanMAX competition binding at 1 µM; conditions: 1 μM compound
Method: (§2) A major issue affecting the further development of RUPB-61 is its human-kinome selectivity. To identify its significant off-target liabilities, we quantified its binding affinity for 400 unique human kinases (S4 Fig). The screen consists of binding competitions between the test compound and control ligands for each of the target human kinases.
as §1

[10] = target: T2, CIT; experiment: DiscoverX scanMAX competition binding at 1 µM; conditions: 1 μM compound
Method: as §2, §1

[11] = target: T3, ROCK1 (Homo sapiens, UniProt Q13464); experiment: DiscoverX scanMAX competition binding at 1 µM; conditions: 1 μM compound
T3 construct: purchased Eurofins (DiscoverX)
T3 sequence (Q13464 whole entry): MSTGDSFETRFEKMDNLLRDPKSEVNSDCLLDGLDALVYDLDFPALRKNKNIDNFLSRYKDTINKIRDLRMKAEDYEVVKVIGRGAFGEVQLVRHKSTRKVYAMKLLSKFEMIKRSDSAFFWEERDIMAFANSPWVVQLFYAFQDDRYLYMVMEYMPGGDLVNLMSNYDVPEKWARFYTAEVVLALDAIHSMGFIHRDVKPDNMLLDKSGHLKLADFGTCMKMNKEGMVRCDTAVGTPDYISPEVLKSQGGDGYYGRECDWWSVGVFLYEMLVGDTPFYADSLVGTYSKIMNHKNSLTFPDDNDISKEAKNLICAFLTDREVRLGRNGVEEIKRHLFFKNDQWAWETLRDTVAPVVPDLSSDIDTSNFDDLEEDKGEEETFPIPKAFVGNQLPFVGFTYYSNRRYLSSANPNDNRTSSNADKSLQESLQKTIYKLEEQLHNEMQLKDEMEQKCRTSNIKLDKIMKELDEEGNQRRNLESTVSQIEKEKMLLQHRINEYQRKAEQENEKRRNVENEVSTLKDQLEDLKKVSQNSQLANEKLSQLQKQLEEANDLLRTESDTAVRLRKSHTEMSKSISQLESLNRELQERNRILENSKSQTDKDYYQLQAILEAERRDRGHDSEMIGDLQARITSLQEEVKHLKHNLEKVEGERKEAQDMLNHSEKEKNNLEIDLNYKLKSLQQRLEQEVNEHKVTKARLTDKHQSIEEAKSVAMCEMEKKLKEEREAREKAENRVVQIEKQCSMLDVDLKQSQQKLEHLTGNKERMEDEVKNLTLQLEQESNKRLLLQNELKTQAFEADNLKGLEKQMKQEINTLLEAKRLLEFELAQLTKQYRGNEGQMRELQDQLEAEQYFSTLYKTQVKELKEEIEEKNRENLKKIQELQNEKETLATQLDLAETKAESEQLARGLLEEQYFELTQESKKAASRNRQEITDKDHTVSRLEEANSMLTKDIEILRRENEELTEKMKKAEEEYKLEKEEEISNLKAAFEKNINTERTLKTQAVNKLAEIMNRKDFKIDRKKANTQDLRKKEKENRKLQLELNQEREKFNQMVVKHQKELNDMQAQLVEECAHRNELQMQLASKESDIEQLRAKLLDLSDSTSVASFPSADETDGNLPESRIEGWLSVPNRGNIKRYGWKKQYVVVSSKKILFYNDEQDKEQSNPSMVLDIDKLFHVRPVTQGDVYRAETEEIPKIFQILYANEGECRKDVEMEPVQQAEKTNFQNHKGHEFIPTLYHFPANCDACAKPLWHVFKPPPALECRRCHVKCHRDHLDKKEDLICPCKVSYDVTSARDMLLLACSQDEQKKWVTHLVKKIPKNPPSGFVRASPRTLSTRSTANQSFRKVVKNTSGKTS
Method: as §2, §1

[12] = Pharmacokinetics in mice after oral or intravenous dosing; type: in vivo
Method: Plasma concentrations were measured by LC-MS/MS. Non-compartmental PK parameters were calculated using Phoenix WinNonlin. Human half-life predictions were derived by allometric scaling for half-life (t1/2): t1/2,human = t1/2,mouse × (Whuman/Wmouse)^0.25, where W = body weight. The exponent 0.25 is commonly used for time-based pharmacokinetic parameters. We assume an average mouse weight of 0.025 kg and an average human weight of 70 kg.

[13] = Intravenous, 10 mg/kg x1 (-0.5 hpi)
[14] = mouse, plasma, iv, 10 mg/kg, mice, IV 10 mg/kg, average of 3 mice
[15] = mouse, plasma, po, 10 mg/kg, mice, PO 10 mg/kg, average of 3 mice

Q: Which “No. of mice patent by D21/ No. of mice inoculated” value [1, 13] does the source give for `C[C@@H]1CN(C)CC[C@@H]1c1cc(-c2ccncc2)c(-c2ccc(F)cc2)[nH]1.Cl.Cl` [RUPB-61, 4-{5-[(3S,4S)-1,3-Dimethylpiperidin-4-yl]-2-(4-fluorophenyl)-1H-pyrrol-3-yl}pyridine Dihydrochloride] here?
A: The value was 0/5.

Q: And the “Prepatent period mean ± sd” value [1, 13]?
A: The value was “negative”.

Q: What about the “No. of mice patent by D21/ No. of mice inoculated” value ([1]; Oral, 10 mg/kg x1 (-3 hpi)) of the same compound?
A: The value was 0/5.

Q: What about the “Prepatent period mean ± sd” value ([1]; Oral, 10 mg/kg x1 (-3 hpi)) of the same compound?
A: Its value is “negative”.

Q: What about the “mice developing detectable blood stage infection in the 3-week monitoring period” value ([1]; single dose 10 mg/kg, PO (-3 hpi) and IV (-0.5 hpi), 10 mice) of the same compound?
A: The value was “none”.

Q: And the “activity against P. berghei sporozoites infecting HepG2 cells” value [2]?
A: The value was “active”.

Q: What about the pIC50 [3] of the same compound?
A: Its pIC50 is 6.72.

Q: And the pKd [4]?
A: Its pKd is 7.89.

Q: What about the pKd [5] of the same compound?
A: Its pKd is 8.28.

Q: What about the first-pass metabolism [6] of the same compound?
A: Its first-pass metabolism is “minimal”.

Q: And the “increase in IC50 against Thr618Gln gatekeeper mutant parasites” value [7]?
A: The value was 15 fold.

Q: And the “cardiovascular risk as judged by hERG inhibition” value [8]?
A: The value was “low preliminary cardiovascular risks”.

Q: What about the “displacement of control ligand for ROCK2” value [9] of the same compound?
A: The value was greater than 99%.

Q: And the “displacement of control ligand for CIT” value [10]?
A: Its value is greater than 99%.

Q: And the “displacement of control ligand for ROCK1” value [11]?
A: Its value is greater than 99%.

Q: What about the “human half-life range by allometric scaling” value ([12]; exponent 0.25, mouse 0.025 kg, human 70 kg) of the same compound?
A: Its value is 67.5 to 90 h.

Q: What about the “half-life in humans by allometric scaling” value ([12]; humans, scaled from mouse oral half-life) of the same compound?
A: The value was 48 to 96 h.

Q: And the plasma exposure maintained ([12]; mice, 10 mg/kg, for 24 h)?
A: Its plasma exposure maintained is greater than 100 nM.

Q: What about the Vss obs ([12]; mice, IV 10 mg/kg, average of 3 mice, 10 mg/kg) of the same compound?
A: The Vss obs was 47.29 L/kg.

Q: And the Bioavailability ([12]; mice, PO vs IV 10 mg/kg, 10 mg/kg)?
A: The Bioavailability was 91 %F.

Q: And the AUC(0-t) [12, 14]?
A: The AUC(0-t) was 7.43 µM·h.

Q: What about the half-life [12, 14] of the same compound?
A: Its half-life is 11.8 h.

Q: And the AUC(0-inf) ([12]; mouse, plasma, iv, 10 mg/kg, mice, IV 10 mg/kg, average of 3 mice, read-out: AUC INF_obs)?
A: Its AUC(0-inf) is 9.8 µM·h.

Q: What about the clearance ([12]; mouse, plasma, iv, 10 mg/kg, mice, IV 10 mg/kg, average of 3 mice, read-out: Cl_obs) of the same compound?
A: Its clearance is 49.2 mL/min/kg.

Q: And the Vd ([12]; mouse, plasma, iv, 10 mg/kg, mice, IV 10 mg/kg, average of 3 mice, read-out: Vss obs)?
A: Its Vd is 47.3 L/kg.

Q: And the clearance ([12]; mouse, plasma, other: oral and intravenous, 10 mg/kg, mice, 10 mg/kg oral and intravenous, read-out: relative clearance)?
A: The clearance was roughly 50 mL/min/kg.

Q: And the Cmax [12, 15]?
A: The Cmax was 630 nM.

Q: And the Tmax [12, 15]?
A: The Tmax was 4.17 h.

Q: What about the AUC(0-inf) ([12]; mouse, plasma, po, 10 mg/kg, mice, PO 10 mg/kg, average of 3 mice, read-out: AUCINF_obs) of the same compound?
A: The AUC(0-inf) was 8.9 µM·h.
